In ChEMBL document CHEMBL1148772, “Inhibition of Mycobacterium tuberculosis, Mycobacterium bovis, and Mycobacterium avium by novel dideoxy nucleosides” (J Med Chem, 2007):
≈ marks a conversion by molar mass, not a printed value.

What was measured:
[1] = test system: Mycobacterium tuberculosis; experiment: Antimycobacterial activity against Mycobacterium tuberculosis H37Ra at 10 uM by microplate alamar blue assay; assay type: functional
Mycobacterium avium [2] = experiment: Antimycobacterial activity against Mycobacterium avium ATCC 25291 at 100 uM by microplate alamar blue assay; assay type: functional
[3] = test system: Mycobacterium tuberculosis; experiment: Antimycobacterial activity against Mycobacterium tuberculosis H37Ra at 100 uM by microplate alamar blue assay; assay type: functional
[4] = test system: Mycobacterium tuberculosis; experiment: Antimycobacterial activity against Mycobacterium tuberculosis H37Ra at 50 uM by microplate alamar blue assay; assay type: functional
[5] = test system: Mycobacterium tuberculosis; experiment: Antimycobacterial activity against Mycobacterium tuberculosis H37Ra at 1 uM by microplate alamar blue assay; assay type: functional
Mycobacterium avium [6] = experiment: Antimycobacterial activity against Mycobacterium avium ATCC 25291 at 50 uM by microplate alamar blue assay; assay type: functional
Mycobacterium avium [7] = experiment: Antimycobacterial activity against Mycobacterium avium ATCC 25291 at 10 uM by microplate alamar blue assay; assay type: functional
Mycobacterium avium [8] = experiment: Antimycobacterial activity against Mycobacterium avium ATCC 25291 by microplate alamar blue assay; assay type: functional
[9] = test system: Mycobacterium tuberculosis; experiment: Antimycobacterial activity against Mycobacterium tuberculosis H37Ra by microplate alamar blue assay; assay type: functional
Bacillus subtilis = experiment: Antibacterial activity against Bacillus subtilis ATCC 6633; assay type: functional
[10] = Cytotoxicity against Vero cells by MTT assay; assay type: cell-based; conditions: African green monkey
[11] = Cytotoxicity against human foreskin fibroblast cells by MTT assay; assay type: cell-based
Streptococcus pneumoniae = experiment: Antibacterial activity against Streptococcus pneumoniae ATCC 49619; assay type: functional
Streptococcus pyogenes = experiment: Antibacterial activity against Streptococcus pyogenes ATCC 19615; assay type: functional
Mycobacterium avium [12] = experiment: Antimycobacterial activity against Mycobacterium avium ATCC 25291 at 2 uM by microplate alamar blue assay; assay type: functional

SMILES	inhibition at 10 µM [1] [%]	inhibition at 100 µM (Mycobacterium avium [2]) [%]	inhibition at 100 µM [3] [%]	inhibition at 50 µM [4] [%]	MIC90 [9] [µg/mL]	other results
Nc1nc(=O)n([C@H]2CC[C@@H](CO)O2)cc1Br	50	0				
CCCCCCCCCC#Cc1cn([C@H]2CC[C@@H](CO)O2)c(=O)[nH]c1=O	100	100	100	100	1 (≈ 2.76 µM)	inhibition at 1 µM [5]: 80%; inhibition at 50 µM (Mycobacterium avium [6]): 100%; inhibition at 10 µM (Mycobacterium avium [7]): 50%; MIC90 (Mycobacterium avium [8]): 10 µg/mL (≈ 27.6 µM); MIC (Bacillus subtilis): 100 µg/mL (≈ 276 µM); CC50 [10]: > 100 µg/mL; CC50 [11]: > 100 µg/mL
CCCCCCCCCCCC#Cc1cn([C@H]2CC[C@@H](CO)O2)c(=O)[nH]c1=O	50	100	100	100	10 (≈ 25.6 µM)	inhibition at 1 µM [5]: 50%; inhibition at 50 µM (Mycobacterium avium [6]): 100%; inhibition at 10 µM (Mycobacterium avium [7]): 80%; MIC90 (Mycobacterium avium [8]): 10 µg/mL (≈ 25.6 µM); CC50 [10]: > 100 µg/mL; CC50 [11]: > 100 µg/mL
O=c1[nH]c(=O)n([C@H]2CC[C@@H](CO)O2)cc1C#Cc1ccccc1		25	25	25		inhibition at 50 µM (Mycobacterium avium [6]): 25%; inhibition at 10 µM (Mycobacterium avium [7]): 25%
O=c1[nH]c(=O)n([C@H]2CC[C@@H](CO)O2)cc1Br		0	0			
CCCC#Cc1cn([C@H]2CC[C@@H](CO)O2)c(=O)[nH]c1=O		0	50			
Nc1ncnc2c1ncn2[C@H]1CC[C@@H](CO)O1		0	0			
CC(=O)OC[C@@H]1CC[C@H](n2ccc(=O)[nH]c2=O)O1		0	0			
O=c1[nH]c(=O)n([C@H]2CC[C@@H](CO)O2)cc1Cl		0	0			
CCCc1ccc(C#Cc2cn([C@H]3C[C@H](F)[C@@H](CO)O3)c(=O)[nH]c2=O)cc1	50	25	100	100	50 (≈ 134 µM)	
CCCCCCCCCCCCC#Cc1cn(C2CC(F)C(CO)O2)c(=O)[nH]c1=O (stereo not drawn)	100	90	100	100	1 (≈ 2.37 µM)	inhibition at 1 µM [5]: 80%; MIC90 (Mycobacterium avium [8]): 100 µg/mL (≈ 237 µM); CC50 [10]: > 100 µg/mL; CC50 [11]: > 100 µg/mL
CCSc1nc(N)nc2c1ncn2[C@H]1CC[C@@H](CO)O1	35	25	100	100	10 (≈ 33.9 µM)	inhibition at 50 µM (Mycobacterium avium [6]): 25%
CC(=O)OC[C@@H]1CC[C@H](n2cc(Cl)c(=S)[nH]c2=O)O1		0	100	60	50 (≈ 164 µM)	
CCCCCC#Cc1cn([C@H]2C[C@H](F)[C@@H](CO)O2)c(=O)[nH]c1=O		0	50			
CCCCCCCCC#Cc1cn([C@H]2C[C@H](F)[C@@H](CO)O2)c(=O)[nH]c1=O	25	50	100	100	10 (≈ 27.3 µM)	CC50 [10]: > 100 µg/mL; CC50 [11]: > 100 µg/mL
CCCCCCCCCCC#Cc1cn([C@H]2C[C@H](F)[C@@H](CO)O2)c(=O)[nH]c1=O	50	90	100	100	10 (≈ 25.3 µM)	inhibition at 50 µM (Mycobacterium avium [6]): 40%; MIC90 (Mycobacterium avium [8]): 100 µg/mL (≈ 253 µM); CC50 [10]: > 100 µg/mL; CC50 [11]: > 100 µg/mL
N#Cc1cn(C2CCC(CO)O2)c2ncnc(N)c12 (stereo not drawn)		0	50	40		

SMILES	inhibition at 10 µM [1] [%]	inhibition at 100 µM (Mycobacterium avium [2]) [%]	inhibition at 100 µM [3] [%]	inhibition at 50 µM [4] [%]	MIC90 [9] [µg/mL]	other results
CCCCCCCCCCCC#Cc1cn([C@H]2C[C@H](F)[C@@H](CO)O2)c(=O)[nH]c1=O	60	25	100	100	10 (≈ 24.5 µM)	CC50 [10]: > 100 µg/mL; CC50 [11]: > 100 µg/mL
CCCCCCCCC#Cc1cn([C@H]2CC[C@@H](CO)O2)c(=O)[nH]c1=O	100	90	100	100	1 (≈ 2.87 µM)	inhibition at 1 µM [5]: 50%; inhibition at 50 µM (Mycobacterium avium [6]): 25%; inhibition at 10 µM (Mycobacterium avium [7]): 25%; MIC90 (Mycobacterium avium [8]): 100 µg/mL (≈ 287 µM); MIC (Bacillus subtilis): 100 µg/mL (≈ 287 µM); MIC (Streptococcus pneumoniae): 100 µg/mL (≈ 287 µM); MIC (Streptococcus pyogenes): 100 µg/mL (≈ 287 µM); CC50 [10]: > 100 µg/mL; CC50 [11]: > 100 µg/mL
Nc1nc(=O)n([C@H]2CC[C@@H](CO)O2)cc1I		0	0			
CC(=O)OC[C@@H]1CC[C@H](n2cc(Cl)c(=O)[nH]c2=O)O1		0	0			
Cc1cn([C@H]2CC[C@@H](CO)O2)c(=O)nc1N	50	0	50	50		
NC(=O)c1cn([C@H]2CC[C@@H](CO)O2)c2ncnc(N)c12		0	0			
Nc1nc(F)c2ccn([C@H]3CC[C@@H](CO)O3)c2n1	25	100	50	40		inhibition at 50 µM (Mycobacterium avium [6]): 100%; inhibition at 10 µM (Mycobacterium avium [7]): 35%; MIC90 (Mycobacterium avium [8]): 10 µg/mL (≈ 39.6 µM)
O=c1[nH]c(=S)c(Cl)cn1[C@H]1CC[C@@H](CO)O1		0	100	50	50 (≈ 190 µM)	
CCCCCCCCCCCCC#Cc1cn([C@H]2CC[C@@H](CO)O2)c(=O)[nH]c1=O	50	100	100	100	10 (≈ 24.7 µM)	inhibition at 1 µM [5]: 25%; inhibition at 50 µM (Mycobacterium avium [6]): 50%; MIC90 (Mycobacterium avium [8]): 50 µg/mL (≈ 124 µM); CC50 [10]: > 100 µg/mL; CC50 [11]: > 100 µg/mL
Nc1nc(N)c2ncn([C@H]3CC[C@@H](CO)O3)c2n1		0	25			
Nc1nc(O)c2ncn([C@H]3CC[C@@H](CO)O3)c2n1		0	0			
CC[C@H]1OC(=O)[C@H](C)[C@@H](O[C@H]2C[C@@](C)(OC)[C@@H](O)[C@H](C)O2)[C@H](C)[C@@H](O[C@@H]2O[C@H](C)C[C@H](N(C)C)[C@H]2O)[C@](C)(OC)C[C@@H](C)C(=O)[C@H](C)[C@@H](O)[C@]1(C)O [CLARITHROMYCIN]						inhibition at 2 µM (Mycobacterium avium [12]): 95%; MIC90 (Mycobacterium avium [8]): 2 µg/mL (≈ 2.67 µM)
Nc1ccn([C@@H]2CS[C@H](CO)O2)c(=O)n1 [LAMIVUDINE]		0	0			
COc1nc(N)nc2c1ncn2[C@H]1CC[C@@H](CO)O1 [METACAVIR]		20	0			inhibition at 50 µM (Mycobacterium avium [6]): 20%
CO[C@H]1/C=C/O[C@@]2(C)Oc3c(C)c(O)c4c(O)c(c(/C=N/N5CCN(C)CC5)c(O)c4c3C2=O)NC(=O)/C(C)=C\C=C\[C@H](C)[C@H](O)[C@@H](C)[C@@H](O)[C@@H](C)[C@H](OC(C)=O)[C@@H]1C [RIFAMPIN]					0.5 (≈ 0.608 µM)	inhibition at 2 µM (Mycobacterium avium [12]): 90%; MIC90 (Mycobacterium avium [8]): 2 µg/mL (≈ 2.43 µM)
Nc1ccn([C@H]2CC[C@@H](CO)O2)c(=O)n1 [ZALCITABINE]		0	0			
